Results: patent US7399638B2, “Prediction method for lipidosis” (Takeda Pharmaceutical Company Limited, priority 2003, dated 2008)
Where two headings read alike, the source gives them in different places. Marks after values point to notes of the source that are not given here.

Experiments:
[1] = tested on: Crj: CD(SD)IGS rats; experiment: Urinary PAG/hippuric acid ratio by 1H NMR in rats; conditions: rat urine, 3 days, mean n = 3-4
[2] = tested on: Crj: CD(SD)IGS rats; conditions: rat, in vivo
Experimental: The following 10 kinds of commercially available drugs were examined as the test compounds for a potential of inducing PLsis by histopathological examination and peripheral blood lymphocyte testing.
The following experiments were performed using the prematurely autopsied animals.
The high-dose dosing suspension was diluted about 3 fold and 10 fold with dispersant/solvent to prepare intermediate- and low-dose dosing suspensions. […] [For LD50, the Summary Basis of Approval (FDA) for each drug was referenced to.]
The animals were examined for mortality, general conditions, body weight, food consumption and the like using PM4800 (Mettler) and EB3200D (Shimadzu Corporation).

[3] = tested on: male cynomolgus monkeys; conditions: cynomolgus monkey, in vivo
Experimental: Amiodarone and perhexiline were purchased from SIGMA Company.
Subsequently, the animals were allocated to four groups (5 animals in total) comprising 2 animals in the control group and 1 male in each treatment group, respectively.
The high-dose dosing suspension was diluted with the dispersant/solvent to prepare a low-dose dosing suspension.
After completion of the administration, livers, kidneys, hearts, spleens, lungs, mesenteric lymph nodes, eyeballs, testes and brains were collected from all animals, and examined for histopathological changes by conventional method of optical microscopy. Additionally, blood samples were collected in the pre-dosing period, on the first day of administration, and on days 2 and 6 of treatment period, blood smear specimens were prepared, and vacuolated lymphocyte ratios were determined.

| SMILES | PAG + hippuric acid/creatinine ([1]; 100 mg/kg/day by gavage) | PAG/creatinine (first term of PAG + hippuric acid) ([1]; 100 mg/kg/day by gavage) | hippuric acid/creatinine (second term of PAG + hippuric acid) ([1]; 100 mg/kg/day by gavage) | PAG + hippuric acid/creatinine ([1]; 300 mg/kg/day by gavage) | PAG/creatinine (first term of PAG + hippuric acid) ([1]; 300 mg/kg/day by gavage) | hippuric acid/creatinine (second term of PAG + hippuric acid) ([1]; 300 mg/kg/day by gavage) | Histopathological changes (PLsis): Liver ([2]; 100 mg/kg/day) | Histopathological changes (PLsis): Lung ([2]; 100 mg/kg/day) | Histopathological changes (PLsis): Lymph node ([2]; 100 mg/kg/day) | Histopathological changes (PLsis): Others ([2]; 100 mg/kg/day) | Histopathological changes (PLsis): Spleen ([2]; 100 mg/kg/day) | Histopathological changes (PLsis): Liver ([2]; 300 mg/kg/day) | Histopathological changes (PLsis): Lung ([2]; 300 mg/kg/day) | Histopathological changes (PLsis): Lymph node ([2]; 300 mg/kg/day) | Histopathological changes (PLsis): Others ([2]; 300 mg/kg/day) | Histopathological changes (PLsis): Spleen ([2]; 300 mg/kg/day) | Histopathological changes (PLsis): Liver ([2]; 1000 mg/kg/day) | Histopathological changes (PLsis): Lung ([2]; 1000 mg/kg/day) | Histopathological changes (PLsis): Lymph node ([2]; 1000 mg/kg/day) | Histopathological changes (PLsis): Others ([2]; 1000 mg/kg/day) | other results |
| --- | --- | --- | --- | --- | --- | --- | --- | --- | --- | --- | --- | --- | --- | --- | --- | --- | --- | --- | --- | --- | --- |
| CN(C)CCCN1c2ccccc2CCc2ccccc21 [Imipramine, imipramine] | 1.21 | 0.34 | 0.87 | 0.71* | 0.40 | 0.31 |  |  |  |  |  |  |  |  |  |  |  |  |  |  |  |
| CCN(CC)CCCC(C)Nc1ccnc2cc(Cl)ccc12 (stereo not drawn) [Chloroquine, chloroquine] |  |  |  |  |  |  |  |  |  |  |  |  |  |  |  |  |  |  |  |  | PAG + hippuric acid/creatinine ([1]; 25 mg/kg/day by gavage): 1.34; PAG/PAG + hippuric acid ([1]; 25 mg/kg/day by gavage): 13.25%; PAG/creatinine (first term of PAG + hippuric acid) ([1]; 25 mg/kg/day by gavage): 0.18; PAG/hippuric acid ([1]; 25 mg/kg/day by gavage): 15.42%; PAG + hippuric acid/creatinine ([1]; 75 mg/kg/day by gavage): 1.23; PAG/creatinine (first term of PAG + hippuric acid) ([1]; 75 mg/kg/day by gavage): 0.24; hippuric acid/creatinine (second term of PAG + hippuric acid) ([1]; 75 mg/kg/day by gavage): 1.00; PAG + hippuric acid/creatinine ([1]; 250 mg/kg/day by gavage): 1.29; PAG/creatinine (first term of PAG + hippuric acid) ([1]; 250 mg/kg/day by gavage): 0.52; hippuric acid/creatinine (second term of PAG + hippuric acid) ([1]; 250 mg/kg/day by gavage): 0.76 |
| CC/C(=C(\c1ccccc1)c1ccc(OCCN(C)C)cc1)c1ccccc1 [Tamoxifen, tamoxifen] | 1.34 | 0.31 | 1.02 | 1.16 | 0.63 | 0.53 | − | + | + | − | − | + | + | + | − | − | + | + | + | − | Histopathological changes (PLsis): Spleen ([2]; 1000 mg/kg/day): −; PAG + hippuric acid/creatinine ([1]; 1000 mg/kg/day by gavage): 1.58; PAG/creatinine (first term of PAG + hippuric acid) ([1]; 1000 mg/kg/day by gavage): 0.91; hippuric acid/creatinine (second term of PAG + hippuric acid) ([1]; 1000 mg/kg/day by gavage): 0.67 |
| CCCCc1oc2ccccc2c1C(=O)c1cc(I)c(OCCN(CC)CC)c(I)c1 [Amiodarone] |  |  |  |  |  |  | − | − | − | − | − | − | + | + | − | − | − | + | + | − | Histopathological changes (PLsis): Spleen ([2]; 1000 mg/kg/day): +; induction of PLsis/steatosis ([3]; 60 mg/kg): not observed; histopathological changes in any target organ ([3]; 300 mg/kg): observed |
